One data set deals with MCF7. Description: Antiproliferative activity against human MCF7 cells assessed as inhibition of cell proliferation incubated for 48 hrs by MTT assay. Type of data set: functional, cell-based. The settings on record: MCF7, 48 h. (Tetrazolium dyes change colour on reduction, which living cells bring about.)
Data set [1] can be described thus: Cytotoxicity against human MCF-10A cells assessed as inhibition of cell proliferation incubated for 48 hrs by MTT assay. In kind it is toxicity, cell-based.
Data set [2] can be described thus: Cytotoxicity against human GES1 cells assessed as inhibition of cell proliferation incubated for 48 hrs by MTT assay. Type of data set: toxicity, cell-based.
The subject of a further data set is SGC-7901. Kind of data set: Antiproliferative activity against human SGC-7901 cells assessed as inhibition of cell proliferation incubated for 48 hrs by MTT assay. The settings on record: SGC-7901, 48 h. In kind it is functional, cell-based.
Data set [3] in a line: Selectivity index, ratio of IC50 for cytotoxicity against human GES1 cells to IC50 for antiproliferative activity against human BGC-823 cells in presence of H2O2. The settings on record: GES1 cells and BGC-823 cells, read-out: Ratio IC50. Type of data set: toxicity, cell-based.
The test system of data set [4] is BGC-823. Kind of data set: Induction of apoptosis in human BGC-823 cells assessed as late apoptotic cells at 1.5 uM incubated for 48 hrs by Annexin V-FITC/PI staining based flow cytometric analysis ( Rvb = 5.61 %). In kind it is functional. A general note: A flow cytometer gives signals particle by particle.
Data set [5] concerns BGC-823. Description: Induction of apoptosis in human BGC-823 cells assessed as necrotic cells at 1.5 uM incubated for 48 hrs by Annexin V-FITC/PI staining based flow cytometric analysis ( Rvb = 1.79 %). In kind it is functional.
In data set [6] the test system is BGC-823. Description: Induction of apoptosis in human BGC-823 cells assessed as early apoptotic cells at 3 uM incubated for 48 hrs by Annexin V-FITC/PI staining based flow cytometric analysis ( Rvb = 1.68 %). In kind it is functional.
Data set [7] relates to BGC-823. Kind of data set: Induction of apoptosis in human BGC-823 cells assessed as viable cells at 6 uM incubated for 48 hrs by Annexin V-FITC/PI staining based flow cytometric analysis ( Rvb = 90.09 %). The settings on record: read-out: Activity. In kind it is functional.
The subject of data set [8] is BGC-823. Description: Antitumor activity against human BGC-823 cells xenografted in BALB/c nude mouse assessed as increase in ROS level in tumor at 5 mg/kg, ip administered for 21 days by DHE staining based analysis. Type of data set: functional, organism-based. The settings on record: time 21.0 day. Background: A xenograft is tissue or cells of one species grown in another, often human tumour cells in immunodeficient mice.

A short description of data set [9]: Acute toxicity in ip dosed ICR mouse assessed as animal death at 1.82 logarithm of dose. Type of data set: organism-based. The settings on record: in vivo.

Calls of active or inactive are those of the source. No cut-off for these calls is given here.

Regarding `CC1(C)CC[C@]2(C(=O)OCCCCOC(=O)c3ccc(OCc4ccc(B5OC(C)(C)C(C)(C)O5)cc4)cc3)CC[C@]3(C)[C@H](C(=O)C=C4[C@@]5(C)C=C(C#N)C(=O)C(C)(C)[C@@H]5CC[C@]43C)[C@@H]2C1`, the IC50 was found to be 2900 nM in the data set on MCF7 and 3.2 µM in the data set on SGC-7901. Further, the half-inhibitory concentration (IC50) at 48 h in [1] is 5 µM; in data set [2], 4.5 µM. Further, the selectivity ratio in [3] was found to be 4. Further, the Activity with BGC-823 [4] was 7.62%; with BGC-823 [5], 3.23%; with BGC-823 [6] it was 2.13%; in [9] it was “Toxic”. Further, the viability at 6 µM in the data set with BGC-823 [7] came to 75.8%. For the same compound, in the data set on BGC-823 [8], the result was Active.

One may read the IC50 as the point on the concentration scale where inhibition reaches its midpoint.

The values above are taken from ChEMBL document CHEMBL5576127, “New CDDO Arylboronate Ester Derivatives with High Selectivity and Low Toxicity” (J Med Chem, 2024).
